ChEMBL document CHEMBL1201862, “PubChem BioAssay data set” (2004)
Calls of active or inactive are those of the source.

Assays:
[1] = target: DNA dC->dU-editing enzyme APOBEC-3A (Homo sapiens, UniProt P31941); assay: Dose Response confirmation of small molecule APOBEC3A DNA Deaminase Inhibitors via a fluorescence-based single-stranded DNA deaminase assay. [Related pubchem assays (depositor defined):AID493011, AID493024]; type: functional
[2] = NIH3T3 cell viability loss – ATP luminescence, mouse fibroblasts, counter-screen, dose response (AID 2010); type: functional, cell-based;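 further: cells exposed to compound for about 90 hours before reading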
[3] = Trypanosoma cruzi growth suppression in host cells – NIH3T3 host cells, beta-gal luminescence, confirmation (AID 2044); type: functional, cell-based;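 further: intracellular parasites grown in NIH/3T3 mouse fibroblasts as host cells; luminescent beta-galactosidase reporter signal from transgenic T. cruzi replicating inside host cells; inhibitors lower the luminescence signal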
[4] = target: DNA dC->dU-editing enzyme APOBEC-3G (Homo sapiens, UniProt Q9HC16); type: functional;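 further: Dose-response counterscreen measuring inhibition of APOBEC3G DNA deaminase activity, run while confirming APOBEC3A inhibitors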
[5] = target: T1, Zinc finger protein mex-5 (Caenorhabditis elegans, UniProt Q9XUB2); assay: potency of MEX-5 RNA-binding blockers – biochemical, C. elegans, fluorescence polarization, dose response (AID 1960)
T1 sequence (Q9XUB2 whole entry): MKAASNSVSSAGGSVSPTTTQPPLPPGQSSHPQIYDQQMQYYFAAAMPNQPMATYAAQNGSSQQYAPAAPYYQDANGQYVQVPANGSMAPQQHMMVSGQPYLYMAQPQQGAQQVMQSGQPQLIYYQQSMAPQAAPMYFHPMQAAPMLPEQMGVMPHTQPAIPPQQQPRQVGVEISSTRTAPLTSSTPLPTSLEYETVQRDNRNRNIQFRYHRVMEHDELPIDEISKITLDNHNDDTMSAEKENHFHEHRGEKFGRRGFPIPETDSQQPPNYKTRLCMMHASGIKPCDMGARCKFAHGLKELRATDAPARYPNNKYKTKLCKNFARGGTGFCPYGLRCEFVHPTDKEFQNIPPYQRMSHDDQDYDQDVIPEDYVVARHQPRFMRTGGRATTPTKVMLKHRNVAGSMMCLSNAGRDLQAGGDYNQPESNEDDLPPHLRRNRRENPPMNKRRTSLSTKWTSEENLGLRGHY

[6] = target: T2, Leucine aminopeptidase (Plasmodium falciparum 3D7, UniProt Q8IL11); assay: P. falciparum M17LAP inhibitors, primary screen, biochemical, fluorogenic H-Leu-NHMec substrate, 1536-well (AID 1619); type: functional
T2 sequence (Q8IL11 whole entry): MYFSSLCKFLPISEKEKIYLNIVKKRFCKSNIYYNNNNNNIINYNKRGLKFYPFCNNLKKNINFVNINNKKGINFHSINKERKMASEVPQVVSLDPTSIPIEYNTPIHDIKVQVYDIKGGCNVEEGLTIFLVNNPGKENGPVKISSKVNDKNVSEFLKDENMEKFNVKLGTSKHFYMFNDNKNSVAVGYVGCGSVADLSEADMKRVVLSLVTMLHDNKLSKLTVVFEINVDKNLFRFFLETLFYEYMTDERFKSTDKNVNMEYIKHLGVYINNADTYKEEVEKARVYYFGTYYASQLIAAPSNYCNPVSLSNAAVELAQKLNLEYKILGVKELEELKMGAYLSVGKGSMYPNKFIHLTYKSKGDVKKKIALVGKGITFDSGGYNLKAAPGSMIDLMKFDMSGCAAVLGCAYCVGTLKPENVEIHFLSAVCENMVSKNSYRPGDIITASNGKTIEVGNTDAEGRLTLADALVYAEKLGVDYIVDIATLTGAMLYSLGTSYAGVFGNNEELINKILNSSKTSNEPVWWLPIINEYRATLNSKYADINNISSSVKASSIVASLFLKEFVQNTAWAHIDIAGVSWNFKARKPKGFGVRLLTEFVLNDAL

[7] = target: T3, RNA-binding protein pos-1 (Caenorhabditis elegans, UniProt G5EF15); assay: disruptors of C. elegans POS-1 RNA interaction – biochemical, fluorescence polarization, dose response (AID 1964);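 further: purified POS-1 fused to maltose binding protein made in E. coli; potency of compounds blocking POS-1 binding to fluorescent RNA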
T3 sequence (G5EF15 whole entry): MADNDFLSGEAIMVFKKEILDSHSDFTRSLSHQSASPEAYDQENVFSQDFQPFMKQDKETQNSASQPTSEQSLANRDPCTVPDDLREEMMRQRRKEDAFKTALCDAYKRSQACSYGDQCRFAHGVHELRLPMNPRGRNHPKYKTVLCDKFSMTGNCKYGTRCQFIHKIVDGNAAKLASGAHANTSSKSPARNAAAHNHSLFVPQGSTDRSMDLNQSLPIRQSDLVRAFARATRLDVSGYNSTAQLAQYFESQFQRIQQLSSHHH

[8] = test system: HEK293; assay: cells; type: functional, cell-based; conditions: Homo sapiens
[9] = target: Tumor necrosis factor (Homo sapiens, UniProt P01375); assay: analog potency on TNFa NF-kB signaling – cell-based, revised, SAR follow-up (AID 2337); type: functional
[10] = test system: HEK293; assay: cells; type: functional, cell-based; conditions: Homo sapiens; remark: listed apart in the source
[11] = loss of viability in HepG2 cells – cell-based, CellTiter-Glo, cherry-picked, cytotoxicity control for Shn3 inhibitor project, dose response (AID 624134); type: functional
[12] = test system: HEK293; assay: NOD2 signaling inhibitors in MDP-stimulated cells, cell-based, uHTS, luminescence (AID 2001); type: functional; conditions: Homo sapiens
[13] = test system: HEK293; assay: inhibition of NOD1-driven NF-kB reporter – cell-based, luminescence, uHTS, primary screen (AID 1578); type: functional; conditions: Homo sapiens
[14] = test system: HEK293; assay: cells; type: functional, cell-based; conditions: Homo sapiens; remark: listed apart in the source
[15] = reduction of Shn3 3'UTR-driven luciferase in osteoblasts – cell-based, Clone20 osteoblasts, firefly luciferase, cherry-picked, dose response (AID 624132); type: functional;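 further: firefly luciferase luminescence from reporter carrying the Shn3 3'UTR in osteoblasts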
[16] = target: Nucleotide-binding oligomerization domain-containing protein 2 (Homo sapiens, UniProt Q9HC29); assay: inhibition of NOD2-driven NF-kB reporter – cell-based, luminescence, uHTS, HEK293 (AID 1566); type: functional
[17] = test system: HEK293; assay: cells; conditions: Homo sapiens
[18] = target: T4, Nucleotide-binding oligomerization domain-containing protein 1 (Homo sapiens, UniProt Q9Y239); assay: blockers of NOD1 pathway activity – revised, SAR follow-up (AID 2333); type: functional
T4 sequence (Q9Y239 whole entry): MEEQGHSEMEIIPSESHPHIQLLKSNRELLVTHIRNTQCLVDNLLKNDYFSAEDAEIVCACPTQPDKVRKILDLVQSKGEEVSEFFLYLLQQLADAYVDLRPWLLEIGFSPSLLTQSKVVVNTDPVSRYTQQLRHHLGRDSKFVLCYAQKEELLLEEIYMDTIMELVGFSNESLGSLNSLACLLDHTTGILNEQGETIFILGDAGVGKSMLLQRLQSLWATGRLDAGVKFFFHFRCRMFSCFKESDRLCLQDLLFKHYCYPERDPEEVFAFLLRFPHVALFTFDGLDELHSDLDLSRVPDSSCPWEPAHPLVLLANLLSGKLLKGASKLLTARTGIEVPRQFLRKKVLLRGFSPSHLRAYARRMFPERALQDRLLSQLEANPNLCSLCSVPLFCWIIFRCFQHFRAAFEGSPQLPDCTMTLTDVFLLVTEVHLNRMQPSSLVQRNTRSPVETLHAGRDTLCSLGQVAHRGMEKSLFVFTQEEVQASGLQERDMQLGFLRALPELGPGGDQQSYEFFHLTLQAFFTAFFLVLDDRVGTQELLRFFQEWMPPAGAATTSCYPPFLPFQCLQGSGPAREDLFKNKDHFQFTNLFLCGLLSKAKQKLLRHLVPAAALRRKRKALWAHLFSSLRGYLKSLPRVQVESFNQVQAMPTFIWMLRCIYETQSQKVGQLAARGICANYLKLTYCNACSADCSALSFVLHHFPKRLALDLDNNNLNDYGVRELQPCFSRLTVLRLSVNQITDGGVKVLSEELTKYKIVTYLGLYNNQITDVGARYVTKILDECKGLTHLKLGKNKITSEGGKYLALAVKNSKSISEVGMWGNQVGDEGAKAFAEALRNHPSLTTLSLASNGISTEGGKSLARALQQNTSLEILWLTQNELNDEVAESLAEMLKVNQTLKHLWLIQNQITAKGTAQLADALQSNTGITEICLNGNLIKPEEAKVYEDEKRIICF

[19] = test system: BJ; assay: cells; type: functional, cell-based; conditions: Homo sapiens
[20] = target: Prothrombin (Homo sapiens, UniProt P00734); assay: Thrombin 1536 HTS Dose Response Confirmation. [Related pubchem assays: 1046 (Thrombin 1536 HTS; hits were confirmed in this assay)]; type: functional
[21] = test system: BJ; assay: BJ-TERT-LT-ST fibroblast viability loss – cell-based, RAS-independent, luminescence, dose response (AID 1935); type: functional; conditions: Homo sapiens;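 further: BJ fibroblasts immortalized with TERT plus LT and ST oncogenes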
[22] = DRD fibroblast viability loss – cell-based, non-viral oncogenic, luminescence, dose response (AID 1934); type: functional; conditions: Homo sapiens
[23] = test system: BJ; assay: growth inhibition of engineered Ras-driven BJ cells – cell-based, alamar blue fluorescence, cherrypicked samples, dose response (AID 2631); type: functional; conditions: Homo sapiens;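 further: confirmatory dose-response assay in RAS-dependent BJ fibroblasts engineered with TERT, LT and ST, with cytotoxicity read by fluorescence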
[24] = test system: BJ; assay: BJ-TERT fibroblast viability loss – cell-based, RAS-independent, luminescence, dose response (AID 1933); type: functional; conditions: Homo sapiens

Chain of DNA dC->dU-editing enzyme APOBEC-3G (Q9HC16 whole entry): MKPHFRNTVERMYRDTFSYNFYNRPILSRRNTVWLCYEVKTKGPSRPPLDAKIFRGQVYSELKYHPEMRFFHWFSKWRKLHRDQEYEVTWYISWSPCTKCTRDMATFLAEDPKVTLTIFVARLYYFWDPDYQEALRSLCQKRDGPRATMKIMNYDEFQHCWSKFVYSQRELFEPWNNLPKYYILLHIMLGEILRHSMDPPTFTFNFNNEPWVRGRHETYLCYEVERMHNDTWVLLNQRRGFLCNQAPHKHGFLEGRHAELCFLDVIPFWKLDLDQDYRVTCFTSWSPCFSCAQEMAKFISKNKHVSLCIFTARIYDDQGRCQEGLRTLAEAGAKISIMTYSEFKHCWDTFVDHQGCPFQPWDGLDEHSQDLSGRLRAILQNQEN
Chain of DNA dC->dU-editing enzyme APOBEC-3A (P31941 whole entry): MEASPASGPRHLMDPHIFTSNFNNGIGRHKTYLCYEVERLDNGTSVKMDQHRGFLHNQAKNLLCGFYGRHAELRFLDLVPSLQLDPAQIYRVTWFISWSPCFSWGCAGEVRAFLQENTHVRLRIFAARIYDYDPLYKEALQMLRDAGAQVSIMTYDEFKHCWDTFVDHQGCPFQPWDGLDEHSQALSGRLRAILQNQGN
Chain of Tumor necrosis factor (P01375 whole entry): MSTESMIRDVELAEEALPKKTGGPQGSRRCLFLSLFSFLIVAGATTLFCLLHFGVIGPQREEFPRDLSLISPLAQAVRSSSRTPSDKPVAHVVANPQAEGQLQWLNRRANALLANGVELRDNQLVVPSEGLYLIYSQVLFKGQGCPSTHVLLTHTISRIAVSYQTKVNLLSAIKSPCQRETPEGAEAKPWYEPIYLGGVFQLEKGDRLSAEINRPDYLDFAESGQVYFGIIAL
Chain of Nucleotide-binding oligomerization domain-containing protein 2 (Q9HC29 whole entry, the tested form may be a part): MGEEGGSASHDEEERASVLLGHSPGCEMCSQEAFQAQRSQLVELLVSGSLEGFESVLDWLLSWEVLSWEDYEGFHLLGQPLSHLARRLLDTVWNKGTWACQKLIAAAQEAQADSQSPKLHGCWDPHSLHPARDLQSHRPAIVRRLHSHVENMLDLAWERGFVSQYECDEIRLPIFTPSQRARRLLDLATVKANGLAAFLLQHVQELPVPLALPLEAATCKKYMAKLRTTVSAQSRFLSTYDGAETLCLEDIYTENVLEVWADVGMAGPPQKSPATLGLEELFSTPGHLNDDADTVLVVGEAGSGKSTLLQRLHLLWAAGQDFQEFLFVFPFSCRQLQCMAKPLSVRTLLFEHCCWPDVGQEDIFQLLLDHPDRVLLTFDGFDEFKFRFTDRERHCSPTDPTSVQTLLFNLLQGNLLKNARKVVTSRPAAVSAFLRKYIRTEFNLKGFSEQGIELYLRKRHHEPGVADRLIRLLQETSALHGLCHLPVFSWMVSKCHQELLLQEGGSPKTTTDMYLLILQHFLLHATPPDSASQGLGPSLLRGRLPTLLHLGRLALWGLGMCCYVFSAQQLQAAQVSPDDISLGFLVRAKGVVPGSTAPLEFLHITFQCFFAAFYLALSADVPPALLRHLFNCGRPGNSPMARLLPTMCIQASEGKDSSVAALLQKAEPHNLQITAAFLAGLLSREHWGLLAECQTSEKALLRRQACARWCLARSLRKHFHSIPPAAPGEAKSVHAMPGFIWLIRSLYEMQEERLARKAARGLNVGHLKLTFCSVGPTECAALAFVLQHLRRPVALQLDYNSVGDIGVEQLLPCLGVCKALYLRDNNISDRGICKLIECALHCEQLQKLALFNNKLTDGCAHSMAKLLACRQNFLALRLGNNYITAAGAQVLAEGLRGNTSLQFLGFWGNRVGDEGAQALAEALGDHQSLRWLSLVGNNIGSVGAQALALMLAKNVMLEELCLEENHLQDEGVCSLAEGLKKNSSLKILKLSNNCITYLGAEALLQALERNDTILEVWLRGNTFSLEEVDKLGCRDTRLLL

Row | Compound | IC50 [1] | IC50 [4] | IC50 [9] | IC50 [10] | IC50 [12] | EC50 [13] | IC50 [14] | IC50 [17] | IC50 [18] | other results
1 | Cc1ccc(OCC(=O)Nc2ccc(S(=O)(=O)N(C)C3CCN(C)CC3)cc2)c(C)c1 | 3.31 µM (active) | 6.95 µM (active) | – | – | – | – | – | – | – | EC50 [2]: > 60 µM (not active); EC50 [3]: 320 nM (active)
2 | O=C(O)c1cccc(-n2cccc2/C=C2/NC(=O)N(Cc3ccccc3F)C2=O)c1 | 14.9 µM (active) | 42.9 µM (active) | – | – | – | – | – | – | – | EC50 [5]: > 300 µM (not active); IC50 [6]: 53.2 µM (active); EC50 [7]: > 300 µM (not active)
3 | Cc1ccccc1C(=O)N1CCN(c2ccc(NC(=O)c3ccc4c(c3)OCCO4)cc2)CC1 | – | – | 4.73 µM (active) | 9.82 µM (active) | 3.6 µM (active) | 4.61 µM (active) | 4.55 µM (active) | > 20 µM (inactive) | 3.69 µM (active) | IC50 [8]: > 20 µM (inactive); AC50 [11]: 4.24 µM (active); AC50 [15]: 2.17 µM (active); EC50 [16]: 10.2 µM (active)
4 | Cc1cccc(Nc2nc(N)nc(CCl)n2)c1 | – | – | > 20 µM (inactive) | > 20 µM (inactive) | 10.2 µM (inactive) | 8.71 µM (active) | 9.2 µM (active) | > 20 µM (inactive) | 4.54 µM (active) | EC50 [19]: 7.74 µM (active); IC50 [20]: > 50 µM (not active); EC50 [21]: > 75 µM (inconclusive); EC50 [22]: 3.92 µM (active); EC50 [23]: 24.4 µM (active); EC50 [24]: 6.83 µM (inconclusive)
